Results published in patent publication US4091092A, “Polymyxin F and process of producing polymyxin F” (priority 1977, dated 1978).

Key:
Test in all cases: Comparison of activities of polymyxins B and F, MIC
Format in all cases: cell-based
Escherichia coli SC8599 = conditions: E. coli SC8599
Text: (§1) *Organisms from the Squibb Culture Collection.

Escherichia coli SC9251 = conditions: E. coli SC9251
Text: as §1

Escherichia coli SC8600 = conditions: Polymyxin-resistant variant of E. coli SC8599
Text: as §1
^a Polymyxin-resistant variant of E. coli SC8599

Escherichia coli SC9252 = conditions: Polymyxin-resistant variant of E. coli SC9251
Text: as §1
(§2) ^b Polymyxin-resistant variants of E. coli SC9251

Escherichia coli SC9253 = conditions: Polymyxin-resistant variant of E. coli SC9251
Text: as §1, §2

Substance: Polymyxin B
- MIC (Escherichia coli SC8599): 0.1 µg/mL
- MIC (Escherichia coli SC9251): 0.06 µg/mL
- MIC (Escherichia coli SC8600): > 100 µg/mL
- MIC (Escherichia coli SC9252): 18.7 µg/mL
- MIC (Escherichia coli SC9253): 50.0 µg/mL
